Counter-ions that a name gives are not always drawn. Like-named read-outs stand apart in the source and are kept apart here.
How the values were obtained:
[1] = Pharmacokinetics assay in rats (intragastric and tail vein administration, plasma LC/MS/MS); assay type: in vivo; details: for bioavailability / F (oral absolute bioavailability): intragastric 10 mg/kg (calculated by the base part), from AUC0-t vs tail vein injection; for bioavailability: read-out: F (oral absolute bioavailability); for Cmax: 0.5% CMC-Na suspension
Experimental: The rats were used as experimental animals. The compound of formula (I) and other salts thereof were administrated intragastrically, the maleate of the compound of formula (I) was injected into the tail vein to determine the drug concentration in plasma at different time points by LC/MS/MS method. The pharmacokinetic behavior, characteristics and the oral absolute bioavailability of the compounds in the present invention were studied and evaluated in rats.
The compound of formula (I), compounds of Example 1˜5.
28 healthy adult SD rats, male and female in half, were divided into 7 groups (4 rats in each group) and purchased from SINO-BRITSH SIPPR/BK LAB. ANIMAL LTD., CO, License number: SCXK (Shanghai) 2008-0016.
The intravenous injection administration group: the suitable amount of compounds were weighted, added into physiological saline and diluted to the final volume. The sample concentration was 1.0 mg/mL.
The intragastrical administration group: the suitable amount of compounds were weighted and added into 0.5% CMC-Na to prepare 1.0 mg/mL suspension by using ultrasound device. The sample should be prepared freshly away from light at the time of use.
28 healthy adult SD rats, male and female in half, were divided into 7 groups (4 rats in each group). After an overnight fast, the compound of Example 1, at a dose of 10 mg/kg (calculated by the base part), at a volume of 10 mL/kg, was administered intragastrically or injected into the tail vein.
For the intravenous injection administration group, blood samples (0.2 mL) were taken from orbital sinus at pre administration and at 2 minutes, 15 minutes, 30 minutes, 1.0 hour, 2.0 hours, 4.0 hours, 6.0 hours, 8.0 hours, 12.0 hours, 24.0 hours and 36.0 hours post administration, stored in heparinized tubes and centrifuged for 10 minutes at 3,500 rpm. The plasma samples were stored at −20° C.
For the intragastrical administration group, blood samples were taken at pre administration and at 0.5, 1.0, 2.0, 3.0, 4.0, 6.0, 8.0, 12.0, 24.0 and 36.0 hours post administration. The method to treat the samples was the same with the intravenous injection administration group. The rats were fed 2 hours after administration.
25 μL of rat plasmas taken at various time points after administration were mixed with 20 μL of internal standard solution and […] of methanol for 2 minutes by using a vortexer and the mixture was centrifuged for 10 minutes at 16,000 rpm. 10 pt of the supernatant was analyzed by LC-MS/MS.
25 μL of rat blank plasmas were mixed with a series of standard solutions respectively to obtain plasma concentration of 1.00, 2.00, 5.00, 25.0, 100, 500, 2000 and 5000 ng/mL. 20 μL of internal standard solution and 150 μL of methanol were added and then the mixture was operated according to “plasma sample pretreatment” method. Plasma concentration was used as the abscissa, the ratio of chromatographic peak area between the sample and internal standard was used as the ordinate, the linear regression was carried out by the weighted least square method (w=1/x^2) to obtain the typical standard curve equation.
Compartment model fitting was carried out on the pharmacokinetic behavior of the tested compounds to calculate the main pharmacokinetic parameters, wherein the measured values were taken for Cmax and tmax. Oral absolute bioavailability was calculated according to AUC0-t after intragastrical administration and intravenous injection at tail vein.

[2] = Solubility in conventional solvents (inventor's finding); assay type: physicochemical; details: in words
From the text: It is necessary to develop new forms of the compound of formula (I) to improve its solubility and pharmacokinetic absorption, which can be used in conventional preparation of dosage forms.

[3] = Solubility assay in physiological saline; assay type: physicochemical; details: conclusion in words
Experimental: According to the conventional solubility measurement, the solubility of the compound of formula (I) and salts thereof were determined in physiological saline.

[4] = both sexes, Sprague-Dawley (SD), rat, plasma, iv, 10 mg/kg, Vein (tail vein injection) 10 mg/kg, read-out: MRT
[5] = both sexes, Sprague-Dawley (SD), rat, plasma, po, 10 mg/kg, intragastric 10 mg/kg
[6] = both sexes, Sprague-Dawley (SD), rat, plasma, po, 10 mg/kg
[7] = both sexes, Sprague-Dawley (SD), rat, plasma, po, 10 mg/kg, intragastric 10 mg/kg, read-out: Cmax
[8] = both sexes, Sprague-Dawley (SD), rat, plasma, po, 10 mg/kg, intragastric 10 mg/kg, read-out: AUC0-t
[9] = both sexes, Sprague-Dawley (SD), rat, plasma, po, 10 mg/kg, intragastric 10 mg/kg, read-out: MRT
[10] = both sexes, Sprague-Dawley (SD), rat, plasma, po, 10 mg/kg, intragastric 10 mg/kg, read-out: Tmax
[11] = both sexes, Sprague-Dawley (SD), rat, plasma, iv, Vein (tail vein injection) 10 mg/kg
[12] = both sexes, Sprague-Dawley (SD), rat, plasma, iv, Vein (tail vein injection) 10 mg/kg in physiological saline, read-out: AUC0-t
[13] = SD rats, Vein (tail vein injection) 10 mg/kg
[14] = SD rats, intragastric 10 mg/kg, maleate

`Cc1c(/C=C2\C(=O)Nc3ccc(F)cc32)[nH]c2c1C(=O)N(C[C@H](O)CN1CCOCC1)CCC2.Cl` [Example 5, (R,Z)-2-(5-fluoro-2-oxo-1,2-dihydro-indol-3-ylidenemethyl)-5-(2-hydroxy-3-morpholin-4-yl-propyl)-3-methyl-5,6,7,8-tetrahydro-1H-pyrrolo[3,2-c]azepin-4-one hydrochloride] showed a half-life ([1]; both sexes, Sprague-Dawley (SD), rat, plasma, iv, 10 mg/kg, Vein (tail vein injection) 10 mg/kg) of 5.97 ± 2.5 h, an AUC(0-t) ([1]; both sexes, Sprague-Dawley (SD), rat, plasma, iv, 10 mg/kg, Vein (tail vein injection) 10 mg/kg in physiological saline, read-out: AUC0-t) of 16100 ± 3970 ng·h/mL and an MRT [1, 4] of 1.4 ± 0.35 h. The CL/F [1, 5] was 33.8 mL/min/kg, the half-life [1, 5] was 3.6 ± 0.52 h and the bioavailability [1, 6] was 25.2%. It also gave a Cmax [1, 7] of 500 ± 100 ng/mL, an AUC(0-t) [1, 8] of 4070 ± 1630 ng·h/mL and an MRT [1, 9] of 6.8 ± 1.58 h. It also gave a Tmax [1, 10] of 4.25 ± 2.06 h.
In the case of `Cc1c(/C=C2\C(=O)Nc3ccc(F)cc32)[nH]c2c1C(=O)N(C[C@H](O)CN1CCOCC1)CCC2.O=C(O)C[C@H](O)C(=O)O` [Example 2, (R,Z)-2-(5-fluoro-2-oxo-1,2-dihydro-indol-3-ylidenemethyl)-5-(2-hydroxy-3-morpholin-4-yl-propyl)-3-methyl-5,6,7,8-tetrahydro-1H-pyrrolo[3,2-c]azepin-4-one malate], the MRT [1, 4] is reported as 1.4 ± 0.35 h, the half-life [1, 11] is reported as 5.97 ± 2.5 h and the AUC(0-t) [1, 12] is reported as 16100 ± 3970 ng·h/mL. It also gave a CL/F [1, 5] of 29.8 mL/min/kg, a half-life [1, 5] of 3.13 ± 0.97 h and a bioavailability [1, 6] of 30.4%. The Cmax [1, 7] was 850 ± 390 ng/mL, the AUC(0-t) [1, 8] was 4900 ± 2790 ng·h/mL and the MRT [1, 9] was 4.29 ± 1.87 h. For the same compound, the Tmax [1, 10] was 1.75 ± 1.66 h.
For `Cc1c(/C=C2\C(=O)Nc3ccc(F)cc32)[nH]c2c1C(=O)N(C[C@H](O)CN1CCOCC1)CCC2` [Example 4, (R,Z)-2-(5-fluoro-2-oxo-1,2-dihydro-indol-3-ylidenemethyl)-5-(2-hydroxy-3-morpholin-4-yl-propyl)-3-methyl-5,6,7,8-tetrahydro-1H-pyrrolo[3,2-c]azepin-4-one mesylate], the “F (oral absolute bioavailability)” value ([1]; SD rats, mesylate) was 45.3%, the Tmax ([1]; SD rats, intragastric 10 mg/kg, mesylate) was 3.75 ± 1.71 h and the MRT [1, 4] was 1.4 ± 0.35 h. For the same compound, the half-life [1, 11] was 5.97 ± 2.5 h, the AUC(0-t) [1, 12] was 16100 ± 3970 ng·h/mL and the CL/F [1, 5] was 24.8 mL/min/kg. It also gave a half-life [1, 5] of 3.41 ± 0.85 h, a Cmax [1, 7] of 770 ± 390 ng/mL and an AUC(0-t) [1, 8] of 7300 ± 5870 ng·h/mL. It also gave an MRT [1, 9] of 6.68 ± 1.58 h.
In the case of `Cc1c(/C=C2\C(=O)Nc3ccc(F)cc32)[nH]c2c1C(=O)N(C[C@H](O)CN1CCOCC1)CCC2` [The compound of formula (I), (R,Z)-2-(5-fluoro-2-oxo-1,2-dihydro-indol-3-ylidenemethyl)-5-(2-hydroxy-3-morpholin-4-yl-propyl)-3-methyl-5,6,7,8-tetrahydro-1H-pyrrolo[3,2-c]azepin-4-one], the MRT [1, 13] is reported as 1.40 ± 0.35 h, the t1/2 [1, 13] is reported as 5.97 ± 2.50 h and the AUC(0-t) ([1]; SD rats, Vein (tail vein injection) 10 mg/kg in physiological saline) is reported as 16120 ± 3970 ng·h/mL. For the same compound, the AUC(0-t) ([1]; SD rats, intragastric 10 mg/kg) was 4490 ± 2790 ng·h/mL, the MRT ([1]; SD rats, intragastric 10 mg/kg) was 5.24 ± 2.23 h and the Tmax ([1]; SD rats, intragastric 10 mg/kg) was 2.00 ± 1.41 h. For the same compound, the t1/2 ([1]; SD rats, intragastric 10 mg/kg) was 3.31 ± 0.57 h, the “F (oral absolute bioavailability)” value ([1]; SD rats) was 27.9% and the Cmax ([1]; SD rats, intragastric 10 mg/kg) was 640 ± 240 ng/mL. The “solubility in conventional solvents” value [2] was “poorly soluble”.
For `Cc1c(/C=C2\C(=O)Nc3ccc(F)cc32)[nH]c2c1C(=O)N(C[C@H](O)CN1CCOCC1)CCC2` [Example 1, (R,Z)-2-(5-fluoro-2-oxo-1,2-dihydro-indol-3-ylidenemethyl)-5-(2-hydroxy-3-morpholin-4-yl-propyl)-3-methyl-5,6,7,8-tetrahydro-1H-pyrrolo[3,2-c]azepin-4-one maleate], the “solubility compared with free base and other salts of the compound of formula (I)” value [3] was “Conclusion: Compared with free base and other salts of the compound of formula (I), the solubility of maleate of the compound of formula (I) has significantly improved”, the “F (oral absolute bioavailability)” value ([1]; SD rats, maleate) was 48.2% and the Cmax [1, 14] was 950 ± 370 ng/mL. It also gave an AUC(0-t) [1, 14] of 7770 ± 2990 ng·h/mL, an MRT [1, 14] of 6.66 ± 2.05 h and a Tmax [1, 14] of 5.75 ± 2.06 h. It also gave a t1/2 [1, 14] of 3.01 ± 0.60 h.
In the case of `CC(O)C(=O)O.Cc1c(/C=C2\C(=O)Nc3ccc(F)cc32)[nH]c2c1C(=O)N(C[C@H](O)CN1CCOCC1)CCC2` [Example 3, (R,Z)-2-(5-fluoro-2-oxo-1,2-dihydro-indol-3-ylidenemethyl)-5-(2-hydroxy-3-morpholin-4-yl-propyl)-3-methyl-5,6,7,8-tetrahydro-1H-pyrrolo[3,2-c]azepin-4-one lactate], the MRT [1, 4] is reported as 1.4 ± 0.35 h, the half-life [1, 11] is reported as 5.97 ± 2.5 h and the AUC(0-t) [1, 12] is reported as 16100 ± 3970 ng·h/mL. It also gave a CL/F [1, 5] of 27.3 mL/min/kg, a half-life [1, 5] of 3.06 ± 1.21 h and a bioavailability [1, 6] of 36.6%. The Cmax [1, 7] was 810 ± 450 ng/mL, the AUC(0-t) [1, 8] was 5900 ± 3350 ng·h/mL and the MRT [1, 9] was 6.28 ± 1.56 h. The Tmax [1, 10] was 2.5 ± 1 h.
